How the values were obtained:
[1] = system: WSU-DLCL2 human diffuse large cell lymphoma; experiment: Inhibition of tumor growth in WSU-DLCL2 non-Hodgkin's-lymphoma model with PNT-100 and vincristine (Example 7); assay type: in vivo, mice
From the text: A non-Hodgkin's-lymphoma model (NHL) was used. The WSU-DLCL2 (Wayne State University diffuse large cell lymphoma) model is a very robust model of chemoresistant aggressive human diffuse large cell lymphoma. It was obtained from Dr. Ramzi Mohammad and Dr. Al-Katib and colleagues at the Karmanos Cancer Institute at Wayne State University. (See Al-Katib, A M, et al., Clin. Cancer Res. 4, 1305-1314 (1998); Mohammad, R, et al., Clin. Cancer Res. 8, 1277-1283 (2002); Mohammad, R M, et al., Mol. Cancer. Ther., 4, 13-21 (2005); Mohammad, R M, et al., Clin. Cancer Res. 6, 4950-4956, (2000).) The study was designed to administer five daily doses of 5 mg/kg PNT-100 (SEQ ID NO: 1251), and in certain cohorts, combination therapy with vincristine.

Daudi xenografts = experiment: Efficacy of liposomal PNT-100 and rituximab in Daudi xenografts (Example 11); assay type: in vivo, mice; settings: doses and schedules of Table 5, FIGS. 7-9
Method: Daudi cells are a model of Burkett's lymphoma. Xenografts with Daudi cells were generated in mice as described in the previous examples. Liposomal PNT-100 was formulated as in example 9 and has similar properties and a concentration of 2.4 mg PNT-100 per ml. The mice were divided into 10 groups and treated as in Table 5.
Tumor volume was caliper measured. Studies were concluded when control animal xenografts reached 2000 mm^3. […] FIG. 8 is a Kaplan-Meyer plot, showing the percent of mice whose tumors have not yet reached 2000 mm^3 each day.

WSU-DLCL2 xenografts = experiment: Efficacy of liposomal PNT-100 and rituximab in WSU-DLCL2 xenografts (Example 10); assay type: in vivo, C.B-17 SCID mice; settings: rituximab 20 mg/kg days 2 and 5; liposomal PNT-100 daily for five days; i.v.
Method: Xenografts with WSU-DLCL2 cells were generated in C.B-17 SCID mice between 4-6 weeks old as described in the previous examples. […] Human pharmaceutical grade rituximab (Biogen Idec-Genentech) was provided by Karmanos Cancer Institute. The mice were treated as in Table 4. [table] Animals were checked three times weekly for tumor growth by caliper measurements. An approximate tumor volume was calculated using the formula ½(a×b^2), where b is the smaller of two perpendicular diameters. Animals were sacrificed when individual animal tumor burden reached 2000 mm^3 or when the study was concluded 81 days post tumor trocar.

PNT-100: PNT-100 oligonucleotide not methylated, bcl-2 oligonucleotide, SEQ ID NO:1251 (DNA CACGCACGCGCATCCCCGCCCGTG; sugars by position and backbone not given here; liposomal formulation)
growth of tumors in mice ([1]; 5 mg/kg PNT-100, alone or with vincristine): decreases the growth tumors
weight loss in the animals ([1]; after one dose, 5 mg/kg planned daily doses): noticeable weight loss
effect on tumor volume / time to 2000 mm^3 (Daudi xenografts): little effect

Rituximab: human pharmaceutical grade rituximab (Biogen Idec-Genentech), antibody directed against CD20
complete regression of the tumor (shrinkage below measurable size for three consecutive time points), number of tumors (WSU-DLCL2 xenografts): seven out of eight
complete regression through the 81 day endpoint, number of tumors (WSU-DLCL2 xenografts): four out of eight
effect on tumor volume / time to 2000 mm^3 (Daudi xenografts): little effect
